How the values were obtained:
[1] = tested on: RSV F protein; assay: RSV immunogenicity: IgG titers after two IM immunizations with vA375 RNA expressing RSV-F in LNPs; type: in vivo, BALB/c mice; conditions: IM days 0 and 21, two weeks after two immunizations
[2] = Particle size and polydispersity by DLS of RSV-F replicon LNPs; type: physicochemical
Experimental: (§1) A self-replicating replicon encoding RSV F protein was administered to BALB/c mice, 8 animals per group, by bilateral intramuscular vaccinations (50 μL per leg) on days 0 and 21 with the replicon (0.1 and 1 ng) formulated as liposomes with the lipids described below. All liposomes tested were composed of 40% cationic lipid, 10% DSPC, 48% cholesterol and 2% PEG-DMG with similar amounts of RNA. The liposomes were all prepared using the same technique as described above.
(§2) % entrapment (% E), Concentration of RNA (Conc), particle size measured by DLS, and polydispersity reported by DLS of LNPs prepared with different cationic lipids

[3] = Entrapment and RNA concentration of RSV-F replicon liposomes (Quant-iT RiboGreen); type: physicochemical
Experimental: RNA was encapsulated in liposomes made essentially by the method of Geall et al. (2012) PNAS vol. 109 (36): 14604-14609, Jeffs et al. (2005) Pharmaceutical Research 22 (3):362-372 and Maurer et al. (2001) Biophysical Journal, 80: 2310-2326 The liposomes were made of 10% DSPC (zwitterionic), 40% cationic lipid, 48% cholesterol and 2% PEG-conjugated DMG (2 kDa PEG). These proportions refer to the % moles in the total liposome.
Briefly, lipids were dissolved in ethanol (2 ml), a RNA replicon was dissolved in buffer (2 ml, 100 mM sodium citrate, pH 6) and these were mixed with 2 ml of buffer followed by 1 hour of equilibration. The mixture was then dialized overnight against 1×PBS. The resulting product contained liposomes, with ˜70-95% encapsulation efficiency. For in vitro and in vivo experiments formulations were diluted to the required RNA concentration with 1×PBS.
The percentage of encapsulated RNA and RNA concentration were determined by Quant-iT RiboGreen RNA reagent kit (Invitrogen), following manufacturer's instructions. The ribosomal RNA standard provided in the kit was used to generate a standard curve. Liposomes were diluted 10× or 100× in 1×TE buffer (from kit) before addition of the dye. Separately, liposomes were diluted 10× or 100× in 1×TE buffer containing 0.5% Triton X before addition of the dye (to disrupt the liposomes and thus to assay total RNA). Thereafter an equal amount of dye was added to each solution and then ˜180 μL of each solution after dye addition was loaded in duplicate into a 96 well tissue culture plate. The fluorescence (Ex 485 nm, Em 528 nm) was read on a microplate reader. All liposome formulations were dosed in vivo based on the encapsulated amount of RNA.
as §1, §2

[4] = Percent encapsulation of mRNA in lipid nanoparticles (Quant-iT Ribogreen); type: physicochemical; conditions: Table 2; leptin mRNA in LNP with the cationic lipid
In short: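 LNPs made by T-junction mixing of ethanolic lipids (cationic lipid:DSPC:cholesterol:PEG lipid 40:10:38:2, N:P 4:1) with mRNA in citrate pH 5.8-6.0, then dialysed against PBS overnight at 4 °C. RiboGreen fluorescence (ex 480/em 520 nm) measured in TE ± 0.75% Triton X-100; encapsulation = (total − free)/total.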

[5] = tested on: human leptin; assay: Human leptin in mouse plasma (ELISA) after IV tail vein injection of encapsulated leptin mRNA; type: in vivo; conditions: hLeptin, 0.2 mpk, ob/ob
Experimental: Human leptin in mouse plasma was measured by ELISA. Antibodies purchased from the R&D Systems duoset (Cat #DY398E, part #840279 for capture antibody and part #840280 for detection antibody) were reconstituted using PBS and titered, again using PBS. The capture antibody was coated at 4 ug/ml in 30 ul/well on a white Nunc® Maxisorp 384 well plate (Cat #460372). After an overnight incubation at room temperature the capture antibody was aspirated and the plate blocked for 2 hours at room temperature with 90 ul/well of KPL milk blocker (Cat #50-82-00). Once the incubation was completed the plate was aspirated and recombinant standards and samples were added to the plate at 30 ul/well for 2 hours at 37° C. while shaking at 600 rpm. Sample/standard dilutions were made using casein sample diluent. Washing/aspiration 3 times with 100 ul/well followed, using Teknova plate wash solution (Cat #P1192). Next, detection antibody was diluted using casein detection antibody diluent to 12.5 ng/ml and added at 30 ul/well for 2 hours room temperature. After this incubation, the plate was washed again and a solution of poly-streptavidin-HRP (Cat #21140) at a 1:1250 dilution in HRP dilution buffer was added to each well (30 ul/well) and incubated for 30 minutes room temperature. A final wash/aspiration removed the HRP solution and a chemiluminescent substrate was added at 30 ul/well (Cat #1859678 & 1859679). The plate was quickly read using a SpectramaxM5 plate reader with a 50 ms integration time. The dynamic range of the ELISA is from 100-2,000 […] (6.25-125 pM) of human leptin. The assay is applicable to plasma from mice, rats and cynomolgus monkeys.
Before the tail vein injection, mouse body weights were recorded and diet weighted, with mice grouped according to their body weights. Mice were prepared by warming them under a heating lamp for ˜2 minutes, with the mice about 12 inches from heat lamp. […]
On day 0, animals were weighed and sorted according to average body weight. Mice were dosed, and food intake (FI) was recorded, on each of days 1-7 and days 9, 11, and 16.

[6] = tested on: Factor VII; assay: Mouse Factor VII dosing and plasma Factor VII activity assay (FVII siRNA LNP, IV); type: in vivo; conditions: 0.03 mpk, XXX mice
Experimental: Female CD-1 mice were received from Harlan Labs and maintained on standard lab chow and water ad libitum. The animals weighed approximately 25 gr at time of dosing. Formulated Factor VII siRNA was administered as a single dose intravenously via the lateral tail vein. Approximately 48 hours after injection, the mice were euthanized by CO2 inhalation followed by exsanguination through the vena cava.
Plasma collected from injected mice was assayed for Factor VII enzyme activity using the Biophen FVII kit from Hyphen Biomedical (catalog number 221304). An assay standard curve was prepared using pooled plasma aliquots from the vehicle control animals. All samples were diluted to fall within the linear range of the standard curve and Factor VII activity relative to control plasma was reported.
Lipid nanoparticles comprising lipid compounds of formula (I) and the FVII siRNA duplex sequence listed above were tested in the Factor VII Activity Assay. The results of this assay are given in Table 34 below as a percent knock down of plasma Factor VII enzyme activity at a dose of 0.3 mg/kg and 0.03 mg/kg.

[7] = tested on: human leptin; assay: Human leptin in mouse plasma (ELISA) after subcutaneous injection of encapsulated leptin mRNA; type: in vivo; conditions: hLeptin, 0.2 mpk, ob/ob
[8] = RSV-F replicon LNP prepared for 1st IM
[9] = RSV-F replicon LNP prepared for 2nd IM

## CCCCC/C=C\C/C=C\CCCCCCCC(=O)OCC(COC(=O)CCCCCCC/C=C\C/C=C\CCCCC)OC(=O)C(CCCCCCCCCCCC)OC(=O)OCCCN(C)C (stereo not drawn) [Example 98, (9Z,9′Z,12Z,12′Z)-2-((2-(((3-(dimethylamino)propoxy)carbonyl)oxy)tetradecanoyl)oxy)propane-1,3-diyl bis(octadeca-9,12-dienoate)]
[1]; 0.1 ng vA375 RNA
  Immunogenicity (2wp2, log10 IgG titers): 4.28 log10 IgG titers
[1]; 1 ng vA375 RNA
  Immunogenicity (2wp2, log10 IgG titers): 4.64 log10 IgG titers
[2]; [8]
  PDI: 0.07
  Size: 139.4 nm
[2]; [9]
  PDI: 0.065
  Size: 130.9 nm
[3]; [8]
  % E (% entrapment): 85.91%
[3]; [9]
  % E (% entrapment): 76.36%
[4]
  % encapsulation mRNA Leptin: 73.4%

## CCCCC/C=C\C/C=C\CCCCCCCC(=O)OCC(COC(=O)CCCCCCC/C=C\C/C=C\CCCCC)COC(=O)CCC(CCCCCCCCCCCC)OC(=O)OCCCN(C)C (stereo not drawn) [Example 105, (9Z,9′Z,12Z,12′Z)-2-(9-dodecyl-2-methyl-7,12-dioxo-6,8,13-trioxa-2-azatetradecan-14-yl)propane-1,3-diyl bis(octadeca-9,12-dienoate)]
[1]; 0.1 ng vA375 RNA
  Immunogenicity (2wp2, log10 IgG titers): 4.21 log10 IgG titers
[1]; 1 ng vA375 RNA
  Immunogenicity (2wp2, log10 IgG titers): 4.53 log10 IgG titers
[2]; [8]
  PDI: 0.107
  Size: 137.2 nm
[2]; [9]
  PDI: 0.123
  Size: 135.7 nm
[3]; [8]
  % E (% entrapment): 85.22%
[3]; [9]
  % E (% entrapment): 69.54%

## CCCCC/C=C\C/C=C\CCCCCCCCC(CCCOC(=O)CCC(=O)OC(CCCCCCCC)CCCCCCCC)OC(=O)OCCCN(C)C (stereo not drawn) [Example 58, (13Z,16Z)-4-(((3-(dimethylamino)propoxy)carbonyl)oxy)docosa-13,16-dien-1-yl heptadecan-9-yl succinate]
[1]; 0.1 ng vA375 RNA
  Immunogenicity (2wp2, log10 IgG titers): 4.19 log10 IgG titers
[1]; 1 ng vA375 RNA
  Immunogenicity (2wp2, log10 IgG titers): 4.26 log10 IgG titers
[2]; [8]
  PDI: 0.111
  Size: 139.4 nm
[2]; [9]
  PDI: 0.075
  Size: 137.1 nm
[3]; [8]
  % E (% entrapment): 87.48%
[3]; [9]
  % E (% entrapment): 87.03%
[4]
  % encapsulation mRNA Leptin: 90.2%

## CCCCCCCCCCCCC(CCC(=O)OC(COC(=O)CCCCCCCCC)COC(=O)CCCCCCCCC)OC(=O)OCCCN(C)CC (stereo not drawn) [Example 91, 2-((4-(((3-(ethyl(methyl)amino)propoxy)carbonyl)oxy)hexadecanoyl)oxy)propane-1,3-diyl bis(decanoate)]
[5]
  Expression of protein following IV injection of encapsulated mRNA: 33.6 ng/mL
[4]
  % encapsulation mRNA Leptin: 94.4%
[6]
  FVII knock-down following IV injection of encapsulated siRNA: 97%/0.03
[7]
  Expression of protein following SC injection of encapsulated mRNA: 3.5 ng/mL

## CCCCCCCCCCCCC(CCCOC(=O)CCCCC(COC(=O)CCCCCCC)COC(=O)CCCCCCC)OC(=O)C1(C)CCN(C)CC1 (stereo not drawn) [Example 131, 2-(5-((4-((1,4-dimethylpiperidine-4-carbonyl)oxy)hexadecyl)oxy)-5-oxopentyl)propane-1,3-diyl dioctanoate]
[1]; 0.1 ng vA375 RNA
  Immunogenicity (2wp2, log10 IgG titers): 4.43 log10 IgG titers
[1]; 1 ng vA375 RNA
  Immunogenicity (2wp2, log10 IgG titers): 5.22 log10 IgG titers
[2]; [8]
  PDI: 0.119
  Size: 138.3 nm
[2]; [9]
  PDI: 0.07
  Size: 143.5 nm
[3]; [8]
  % E (% entrapment): 85.31%
[3]; [9]
  % E (% entrapment): 80.31%
[4]
  % encapsulation mRNA Leptin: 96.4%

## CCCCCCCCCCCCC(CCOC(=O)CCCCC(OCC(CCC)CCC)OCC(CCC)CCC)OC(=O)OCCCN(C)C (stereo not drawn) [Example 115, 3-(((3-(dimethylamino)propoxy)carbonyl)oxy)pentadecyl 6,6-bis((2-propylpentyl)oxy)hexanoate]
[1]; 0.1 ng vA375 RNA
  Immunogenicity (2wp2, log10 IgG titers): 1.91 log10 IgG titers
[1]; 1 ng vA375 RNA
  Immunogenicity (2wp2, log10 IgG titers): 3.31 log10 IgG titers
[2]; [8]
  PDI: 0.075
  Size: 141.3 nm
[2]; [9]
  PDI: 0.065
  Size: 130.9 nm
[3]; [8]
  % E (% entrapment): 95.76%
[3]; [9]
  % E (% entrapment): 95.78%
[4]
  % encapsulation mRNA Leptin: 97.8%
